Assays:
CDK2/cyclin A2 = molecular target: T1, CDK2/cyclin A2 (Homo sapiens, UniProt P24941); test: Human CDK2/cyclin A2 inhibitory activity (QS S Assist CDK2/Cyclin A2_FP Kit, IMAP fluorescence polarization); format: biochemical; details: Human CDK2/cyclin A2 inhibitory activity; read-out: CDK2 Activity symbol
T1 construct: purchased Carna Biosciences, Inc. QS S Assist CDK2/Cyclin A2_FP Kit
Experimental: Human CDK2/Cyclin A^2 Inhibitory Activity
Each compound was analyzed for CDK2/cyclin A2 inhibitory activity with an assay kit (QS S Assist CDK2/Cyclin A2_FP Kit, available from Carna Biosciences, Inc.). This assay kit determines kinase activity on the basis of the IMAP technology by Molecular Devices. Specifically, the kinase activity is determined through quantification of a variation in fluorescent polarization caused by binding of a kinase-phosphorylated fluorescent substance to an IMAP-binding reagent.
An assay buffer was prepared by 10-fold dilution of the 10× assay buffer attached to the kit with distilled water, and each solution was prepared with the assay buffer. The assay buffer contained 20 mM HEPES (pH 7.4), 0.01% Tween 20, and 2 mM dithiothreitol. A test compound solution was prepared by dilution of the test compound with dimethyl sulfoxide (DMSO) to a concentration 100 times higher than the final concentration and then 25-fold dilution with the assay buffer to a concentration four times higher than the final concentration. An ATP/substrate/Metal solution was prepared by five-fold dilution of the 5×ATP/substrate/Metal solution attached to the kit with the assay buffer. An enzyme solution was prepared by dilution of the CDK2/cyclin A2 attached to the kit with the assay buffer to a concentration twice higher than the final concentration (final concentration of CDK2/cyclin A2: 2.5 ng/well). A detection reagent was prepared by five-fold dilution of 5×IMAP-binding buffer A with distilled water and 400-fold dilution of the IMAP-binding reagent with the diluted buffer.
The test compound solution (5 μL/well) and the ATP/substrate/Metal solution (5 μL/well) were added to a 384-well plate, and the enzyme solution or the assay buffer (10 μL/well) was added to the plate (total amount of the reaction mixture: 20 μL/well) for initiation of enzymatic reaction. […] The reaction was performed at room temperature for 60 minutes, and the detection reagent (60 μL/well) was then added to the plate, followed by further reaction for 30 minutes at room temperature under light shielding conditions. Subsequently, fluorescent polarization was determined with a microplate reader at an excitation wavelength of 485 nm and an emission wavelength of 535 nm.
The percent inhibition of enzyme activity was calculated for each test compound (note: enzyme activity=100% in the case of addition of the enzyme solution and addition of DMSO instead of the test compound solution, whereas enzyme activity=0% in the case of addition of the assay buffer instead of the enzyme solution and addition of DMSO instead of the test compound solution). The percent inhibition of enzyme activity was fitted to a dose-response curve, to determine a 50% inhibitory concentration against CDK2/cyclin A2.
In each table, “+++” corresponds to IC50<10 nM, “++” 10 nM≤IC50<100 nM, and “+” 100 nM≤IC50.

CDK4/cyclin D3 = molecular target: T2, CDK4/cyclin D3 (Homo sapiens, UniProt P11802); test: Human CDK4/cyclin D3 inhibitory activity (QS S Assist CDK4/Cyclin D3_FP Kit, IMAP fluorescence polarization); format: biochemical; details: Human CDK4/cyclin D3 inhibitory activity; read-out: CDK4 Activity symbol
T2 construct: purchased Carna Biosciences, Inc. QS S Assist CDK4/Cyclin D3_FP Kit
Summary of the method: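 Percent inhibition, relative to DMSO with and without enzyme, was curve-fitted to give IC50 from polarization (ex 485, em 535 nm). The 45-min room-temperature reaction used 12.5-25 ng/well enzyme, kit ATP/substrate/metal mix, and HEPES pH 7.4 buffer with Tween20 and DTT, followed by 30-min IMAP binding in the dark.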

T2 sequence (P11802 whole entry): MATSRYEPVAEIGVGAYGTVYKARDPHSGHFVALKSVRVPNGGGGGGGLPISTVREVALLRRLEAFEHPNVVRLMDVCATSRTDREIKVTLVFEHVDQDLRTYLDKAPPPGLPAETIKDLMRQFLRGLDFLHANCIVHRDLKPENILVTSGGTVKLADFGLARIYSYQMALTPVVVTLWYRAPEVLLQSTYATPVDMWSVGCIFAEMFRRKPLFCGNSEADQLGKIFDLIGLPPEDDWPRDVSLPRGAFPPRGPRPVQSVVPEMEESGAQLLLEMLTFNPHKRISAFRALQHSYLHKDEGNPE
T2 sequence (P30281 whole entry partner): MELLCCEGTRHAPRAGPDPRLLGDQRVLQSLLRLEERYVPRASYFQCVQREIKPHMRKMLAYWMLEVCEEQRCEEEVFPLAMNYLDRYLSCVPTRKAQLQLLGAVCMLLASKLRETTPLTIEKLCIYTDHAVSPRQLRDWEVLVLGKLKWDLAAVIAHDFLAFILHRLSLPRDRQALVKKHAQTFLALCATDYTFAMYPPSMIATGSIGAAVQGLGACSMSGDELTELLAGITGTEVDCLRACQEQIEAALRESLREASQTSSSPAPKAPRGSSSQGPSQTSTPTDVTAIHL

SMILES | IC50 (CDK2/cyclin A2) [nM] | IC50 (CDK4/cyclin D3) [nM]
CC(C)N(C)c1nc(C(F)F)cc2cnc(Nc3ccc(N4CCNCC4)cn3)nc12 [Compound 14] | ≥ 100 | < 10
COCCNc1nc(C(F)F)cc2cnc(Nc3ccc(N4CCNCC4)cn3)nc12 [Compound 15] | ≥ 100 | < 10
CC(C)Nc1nc([C@H](C)O)cc2cnc(Nc3ccc(N4CCNCC4)cn3)nc12 [Compound 17] | ≥ 100 | < 10
FC(F)c1cc2cnc(Nc3ccc(N4CCNCC4)cn3)nc2c(NC2CC2)n1 [Compound 18] | ≥ 100 | < 10
CNc1nc(C(F)F)cc2cnc(Nc3ccc(N4CCNCC4)cn3)nc12 [Compound 19] | ≥ 100 | < 10
CCNc1nc(C(F)F)cc2cnc(Nc3ccc(N4CCNCC4)cn3)nc12 [Compound 20] | ≥ 100 | < 10
CC(O)c1cc2cnc(Nc3ccc(N4CCNCC4)cn3)nc2c(NC2CC2)n1 (centres unmarked) [Compound 21] | ≥ 100 | < 10
CNc1nc(C(C)O)cc2cnc(Nc3ccc(N4CCNCC4)cn3)nc12 (centres unmarked) [Compound 22] | ≥ 100 | 10 to 100
CCNc1nc(C(C)O)cc2cnc(Nc3ccc(N4CCNCC4)cn3)nc12 (centres unmarked) [Compound 23] | ≥ 100 | < 10
CC(O)c1cc2cnc(Nc3ccc(N4CCNCC4)cn3)nc2c(NC(C)(C)C)n1 (centres unmarked) [Compound 24] | ≥ 100 | < 10
CC(O)c1cc2cnc(Nc3ccc(N4CCNCC4)cn3)nc2c(Nc2ccccc2)n1 (centres unmarked) [Compound 26] | ≥ 100 | < 10
CC(O)c1cc2cnc(Nc3ccc(N4CCNCC4)cn3)nc2c(Nc2ccn[nH]2)n1 (centres unmarked) [Compound 27] | ≥ 100 | 10 to 100
COCC(C)Nc1nc(C(C)O)cc2cnc(Nc3ccc(N4CCNCC4)cn3)nc12 (centres unmarked) [Compound 28] | ≥ 100 | < 10
COCC(C)(C)Nc1nc(C(C)O)cc2cnc(Nc3ccc(N4CCNCC4)cn3)nc12 (centres unmarked) [Compound 29] | ≥ 100 | < 10
COCC(C)(C)Nc1nc(C(F)F)cc2cnc(Nc3ccc(N4CCNCC4)cn3)nc12 [Compound 31] | ≥ 100 | < 10
CC(O)c1cc2cnc(Nc3ccc(N4CCNCC4)cn3)nc2c(Nc2cn[nH]c2)n1 (centres unmarked) [Compound 32] | ≥ 100 | < 10
FC(F)c1cc2cnc(Nc3ccc(N4CCNCC4)cn3)nc2c(NC2COC2)n1 [Compound 33] | ≥ 100 | ≥ 100

Now from value to molecule:

IC50 (CDK2/cyclin A2) [nM] | IC50 (CDK4/cyclin D3) [nM] | SMILES
10 to 100 | < 10 | FC(F)c1cc2cnc(Nc3ccc(N4CCNCC4)cn3)nc2c(NC2CCOCC2)n1 [Compound 4]
≥ 100 | < 10 | CN(c1nc(C(F)F)cc2cnc(Nc3ccc(N4CCNCC4)cn3)nc12)C1CCCC1 [Compound 5]
10 to 100 | < 10 | OCc1cc2cnc(Nc3ccc(N4CCNCC4)cn3)nc2c(NC2CCCC2)n1 [Compound 6]
≥ 100 | < 10 | CC(C)Oc1nc(C(F)F)cc2cnc(Nc3ccc(N4CCNCC4)cn3)nc12 [Compound 7]
≥ 100 | < 10 | CC(O)c1cc2cnc(Nc3ccc(N4CCNCC4)cn3)nc2c(NC2CCCC2)n1 (centres unmarked) [Compound 8]
≥ 100 | < 10 | CC(C)Nc1nc(C(C)O)cc2cnc(Nc3ccc(N4CCNCC4)cn3)nc12 (centres unmarked) [Compound 9]
≥ 100 | < 10 | CC(O)c1cc2cnc(Nc3ccc(N4CCNCC4)cn3)nc2c(N(C)C2CCCC2)n1 (centres unmarked) [Compound 10]
≥ 100 | 10 to 100 | CC(O)c1cc2cnc(Nc3ccc(N4CCNCC4)cn3)nc2c(N(C)C2CCOCC2)n1 (centres unmarked) [Compound 11]
≥ 100 | < 10 | CC(O)c1cc2cnc(Nc3ccc(N4CCNCC4)cn3)nc2c(NC2CCOCC2)n1 (centres unmarked) [Compound 12]
10 to 100 | < 10 | CC(C)(C)Nc1nc(C(F)F)cc2cnc(Nc3ccc(N4CCNCC4)cn3)nc12 [Compound 13]
10 to 100 | < 10 | COCC(C)Nc1nc(C(F)F)cc2cnc(Nc3ccc(N4CCNCC4)cn3)nc12 (centres unmarked) [Compound 30]

— patent publication US10124004B2, “Pyrido[3,4-d]pyrimidine derivative and pharmaceutically acceptable salt thereof” (Teijin Pharma Limited, priority 2015, dated 2018)
